Results as given in patent US20210085640A1, “ACYLATED CATECHIN POLYPHENOLS AND METHODS OF THEIR USE FOR THE TREATMENT OF CANCER” (Flagship Pioneering Innovations V, Inc., priority 2018, published 2021).

How the values were obtained:
Type in all cases: cell-based
T24 bladder cancer cells = test: Cancer cell survival (CellTiter-Glo), T24; conditions: 72 h
Method: (§1) The cells were prepared as follows. Cells were harvested during logarithmic growth, counted, and adjusted to 4.44×10^4 cells/mL with culture media. 90 μL of suspended cells were added to wells of 96-well plates for a final cell count of 4×10^3 cells/well. The plates were incubated overnight at 37 C with 5% CO2 overnight.
(§2) The test compounds were assayed as follows. Compound solutions were mixed at 10× final concentrations in cell media: 1 μM-10 mM (fatty acids) or 100 nM-1 mM (all other compounds). […] of solution was added to each well of cells in triplicate for each concentration. Well plates were incubated for 72 h at 37 C with 5% CO2 and then assayed with CellTiter-Glo by adding 50 μL of CTG solution to each well. Cells were lysed by shaking on an orbital shaker for 5 min. Plates were incubated at room temperature for 20 min and then each well's luminescence was measured. The surviving percentage of cells was determined as:
(§3) Survival %=(LumTest article−LumMedium control)/(LumNone treated−LumMedium control)[…]
Efficacy was assessed at nine concentration levels for each compound and the 50% inhibition concentration (IC50) determined for each compound.

[1] = tested on: Daudi lymphoma cancer cells; test: Cancer cell survival (CellTiter-Glo), Daudi; conditions: 72 h
Method: as §1, §2, §3
Activity was assessed at nine concentration levels for each compound and the 50% inhibition concentration (IC50) determined for each compound.

MCF7 breast cancer cells = test: Cancer cell survival (CellTiter-Glo), MCF7; conditions: 72 h
Method: as §1, §2, §3
(§4) Cytotoxicity was assessed at nine concentration levels for each compound and the 50% inhibition concentration (IC50) determined for each compound.

[2] = tested on: HCT 116 colorectal cancer cells; test: Cancer cell survival (CellTiter-Glo), HCT 116; conditions: HCT 116 cells, 72 h
Method: as §1, §2, §3, §4

A549 lung cancer cells = test: Cancer cell survival (CellTiter-Glo), A549; conditions: 72 h
Method: as §1, §2, §3, §4

[3] = tested on: PC-3 prostate cancer cells; test: Cancer cell survival (CellTiter-Glo), PC-3; conditions: PC-3 cells, 72 h
Method: as §1, §2, §3, §4

A-431 skin cancer cells = test: Cancer cell survival (CellTiter-Glo), A-431; design: Cell survival at given concentration: unit not given here; conditions: A-431 cells, 72 h
Method: as §1, §2, §3, §4

AGS stomach cancer cells = test: Cancer cell survival (CellTiter-Glo), AGS; design: Cell survival at given concentration: unit not given here
Method: as §1, §2, §3, §4

CC(O)CC(=O)O (stereo not drawn) [beta-hydroxybutyrate]
1.05: Cell survival at given concentration (A549 lung cancer cells; 100 μM, Table 7.2) | Cell survival at given concentration (A-431 skin cancer cells; 317 μM) | Cell survival at given concentration (A-431 skin cancer cells; 1 mM)
1.02: Cell survival at given concentration (T24 bladder cancer cells; 317 μM) | Cell survival at given concentration ([1]; 100 μM, Table 4.2) | Cell survival at given concentration (A549 lung cancer cells; 32 μM, Table 7.2) | Cell survival at given concentration (A-431 skin cancer cells; 3 μM, Table 9.2) | Cell survival at given concentration (AGS stomach cancer cells; 32 μM, Table 10.2)
0.91: Cell survival at given concentration ([1]; 10 mM) | Cell survival at given concentration (MCF7 breast cancer cells; 10 mM)
0.92: Cell survival at given concentration (MCF7 breast cancer cells; 3 mM)
> 10 mM: IC50 (A549 lung cancer cells; Table 7.2)
0.96: Cell survival at given concentration (T24 bladder cancer cells; 100 μM, Table 3.2) | Cell survival at given concentration ([1]; 3 mM) | Cell survival at given concentration ([2]; 3 mM)
0.97: Cell survival at given concentration (T24 bladder cancer cells; 1 μM, Table 3.2) | Cell survival at given concentration (MCF7 breast cancer cells; 1 mM) | Cell survival at given concentration ([3]; 10 mM)
1.01: Cell survival at given concentration ([1]; 1 μM, Table 4.2) | Cell survival at given concentration (MCF7 breast cancer cells; 32 μM, Table 5.2) | Cell survival at given concentration (MCF7 breast cancer cells; 317 μM) | Cell survival at given concentration ([2]; 1 mM) | Cell survival at given concentration (A549 lung cancer cells; 10 μM, Table 7.2) | Cell survival at given concentration (A549 lung cancer cells; 317 μM) | Cell survival at given concentration (A549 lung cancer cells; 1 mM) | Cell survival at given concentration (A549 lung cancer cells; 3 mM) | Cell survival at given concentration ([3]; 1 μM, Table 8.2) | Cell survival at given concentration ([3]; 10 μM, Table 8.2) | Cell survival at given concentration ([3]; 1 mM) | Cell survival at given concentration (A-431 skin cancer cells; 1 μM, Table 9.2) | Cell survival at given concentration (A-431 skin cancer cells; 10 mM) | Cell survival at given concentration (AGS stomach cancer cells; 1 μM, Table 10.2) | Cell survival at given concentration (AGS stomach cancer cells; 10 μM, Table 10.2)
1.04: Cell survival at given concentration (AGS stomach cancer cells; 100 μM, Table 10.2) | Cell survival at given concentration (AGS stomach cancer cells; 1 mM)
0.90: Cell survival at given concentration ([2]; 10 mM)
1.00: Cell survival at given concentration (T24 bladder cancer cells; 3 μM, Table 3.2) | Cell survival at given concentration (T24 bladder cancer cells; 10 mM) | Cell survival at given concentration (MCF7 breast cancer cells; 1 μM, Table 5.2) | Cell survival at given concentration (MCF7 breast cancer cells; 3 μM, Table 5.2) | Cell survival at given concentration (MCF7 breast cancer cells; 10 μM, Table 5.2) | Cell survival at given concentration ([2]; 3 μM, Table 6.2) | Cell survival at given concentration ([2]; 100 μM, Table 6.2) | Cell survival at given concentration (A549 lung cancer cells; 1 μM, Table 7.2) | Cell survival at given concentration ([3]; 3 μM, Table 8.2) | Cell survival at given concentration ([3]; 3 mM) | Cell survival at given concentration (AGS stomach cancer cells; 10 mM)
0.98: Cell survival at given concentration (T24 bladder cancer cells; 10 μM, Table 3.2) | Cell survival at given concentration ([1]; 10 μM, Table 4.2) | Cell survival at given concentration ([1]; 32 μM, Table 4.2) | Cell survival at given concentration ([2]; 1 μM, Table 6.2) | Cell survival at given concentration ([2]; 32 μM, Table 6.2) | Cell survival at given concentration (A549 lung cancer cells; 10 mM)
0.95: Cell survival at given concentration (T24 bladder cancer cells; 32 μM, Table 3.2)
1.03: Cell survival at given concentration (MCF7 breast cancer cells; 100 μM, Table 5.2) | Cell survival at given concentration ([2]; 317 μM) | Cell survival at given concentration ([3]; 32 μM, Table 8.2) | Cell survival at given concentration ([3]; 100 μM, Table 8.2) | Cell survival at given concentration ([3]; 317 μM) | Cell survival at given concentration (A-431 skin cancer cells; 10 μM, Table 9.2) | Cell survival at given concentration (A-431 skin cancer cells; 32 μM, Table 9.2) | Cell survival at given concentration (A-431 skin cancer cells; 100 μM, Table 9.2) | Cell survival at given concentration (A-431 skin cancer cells; 3 mM) | Cell survival at given concentration (AGS stomach cancer cells; 3 μM, Table 10.2) | Cell survival at given concentration (AGS stomach cancer cells; 317 μM) | Cell survival at given concentration (AGS stomach cancer cells; 3 mM)
0.99: Cell survival at given concentration (T24 bladder cancer cells; 1 mM) | Cell survival at given concentration (T24 bladder cancer cells; 3 mM) | Cell survival at given concentration ([1]; 3 μM, Table 4.2) | Cell survival at given concentration ([1]; 317 μM) | Cell survival at given concentration ([1]; 1 mM) | Cell survival at given concentration ([2]; 10 μM, Table 6.2) | Cell survival at given concentration (A549 lung cancer cells; 3 μM, Table 7.2)

CC(O)CCO (stereo not shown) [butanediol]
1.06: Cell survival at given concentration (AGS stomach cancer cells; 1 mM)
0.96: Cell survival at given concentration (MCF7 breast cancer cells; 10 mM) | Cell survival at given concentration ([2]; 3 μM, Table 6.2) | Cell survival at given concentration ([3]; 10 mM)
1.03: Cell survival at given concentration (T24 bladder cancer cells; 3 μM, Table 3.2) | Cell survival at given concentration (T24 bladder cancer cells; 317 μM) | Cell survival at given concentration (MCF7 breast cancer cells; 100 μM, Table 5.2) | Cell survival at given concentration (A549 lung cancer cells; 10 μM, Table 7.2) | Cell survival at given concentration ([3]; 10 μM, Table 8.2) | Cell survival at given concentration (A-431 skin cancer cells; 3 μM, Table 9.2) | Cell survival at given concentration (A-431 skin cancer cells; 100 μM, Table 9.2) | Cell survival at given concentration (AGS stomach cancer cells; 10 μM, Table 10.2)
0.95: Cell survival at given concentration ([2]; 10 mM) | Cell survival at given concentration (A549 lung cancer cells; 1 μM, Table 7.2)
1.01: Cell survival at given concentration (T24 bladder cancer cells; 100 μM, Table 3.2) | Cell survival at given concentration ([1]; 317 μM) | Cell survival at given concentration (MCF7 breast cancer cells; 317 μM) | Cell survival at given concentration ([2]; 1 mM) | Cell survival at given concentration (A549 lung cancer cells; 32 μM, Table 7.2) | Cell survival at given concentration (A549 lung cancer cells; 1 mM) | Cell survival at given concentration (A-431 skin cancer cells; 10 mM) | Cell survival at given concentration (AGS stomach cancer cells; 1 μM, Table 10.2)
1.05: Cell survival at given concentration (AGS stomach cancer cells; 32 μM, Table 10.2)
1.02: Cell survival at given concentration (T24 bladder cancer cells; 1 μM, Table 3.2) | Cell survival at given concentration (T24 bladder cancer cells; 1 mM) | Cell survival at given concentration (MCF7 breast cancer cells; 32 μM, Table 5.2) | Cell survival at given concentration ([2]; 317 μM) | Cell survival at given concentration (A549 lung cancer cells; 317 μM) | Cell survival at given concentration ([3]; 32 μM, Table 8.2) | Cell survival at given concentration ([3]; 317 μM) | Cell survival at given concentration (A-431 skin cancer cells; 1 μM, Table 9.2) | Cell survival at given concentration (A-431 skin cancer cells; 1 mM) | Cell survival at given concentration (A-431 skin cancer cells; 3 mM) | Cell survival at given concentration (AGS stomach cancer cells; 3 μM, Table 10.2) | Cell survival at given concentration (AGS stomach cancer cells; 317 μM) | Cell survival at given concentration (AGS stomach cancer cells; 3 mM)
0.98: Cell survival at given concentration ([1]; 1 μM, Table 4.2) | Cell survival at given concentration ([1]; 32 μM, Table 4.2) | Cell survival at given concentration (MCF7 breast cancer cells; 10 μM, Table 5.2) | Cell survival at given concentration (MCF7 breast cancer cells; 3 mM) | Cell survival at given concentration ([2]; 1 μM, Table 6.2) | Cell survival at given concentration ([2]; 10 μM, Table 6.2) | Cell survival at given concentration (A549 lung cancer cells; 10 mM) | Cell survival at given concentration ([3]; 3 mM) | Cell survival at given concentration (AGS stomach cancer cells; 10 mM)
0.97: Cell survival at given concentration ([1]; 3 μM, Table 4.2) | Cell survival at given concentration ([1]; 10 μM, Table 4.2) | Cell survival at given concentration ([2]; 32 μM, Table 6.2) | Cell survival at given concentration (A549 lung cancer cells; 3 μM, Table 7.2) | Cell survival at given concentration (A549 lung cancer cells; 3 mM) | Cell survival at given concentration ([3]; 1 mM)
1.00: Cell survival at given concentration (T24 bladder cancer cells; 32 μM, Table 3.2) | Cell survival at given concentration (T24 bladder cancer cells; 3 mM) | Cell survival at given concentration (T24 bladder cancer cells; 10 mM) | Cell survival at given concentration ([1]; 100 μM, Table 4.2) | Cell survival at given concentration ([1]; 1 mM) | Cell survival at given concentration ([1]; 3 mM) | Cell survival at given concentration ([1]; 10 mM) | Cell survival at given concentration (MCF7 breast cancer cells; 1 μM, Table 5.2) | Cell survival at given concentration (MCF7 breast cancer cells; 1 mM) | Cell survival at given concentration ([2]; 100 μM, Table 6.2) | Cell survival at given concentration (A549 lung cancer cells; 100 μM, Table 7.2) | Cell survival at given concentration ([3]; 1 μM, Table 8.2) | Cell survival at given concentration ([3]; 100 μM, Table 8.2)
1.04: Cell survival at given concentration (A-431 skin cancer cells; 10 μM, Table 9.2) | Cell survival at given concentration (A-431 skin cancer cells; 32 μM, Table 9.2) | Cell survival at given concentration (A-431 skin cancer cells; 317 μM) | Cell survival at given concentration (AGS stomach cancer cells; 100 μM, Table 10.2)
0.99: Cell survival at given concentration (T24 bladder cancer cells; 10 μM, Table 3.2) | Cell survival at given concentration (MCF7 breast cancer cells; 3 μM, Table 5.2) | Cell survival at given concentration ([2]; 3 mM) | Cell survival at given concentration ([3]; 3 μM, Table 8.2)
